Patent EP4793271A1, “NEUROPROTECTIVE AGENT” (National Center of Neurology and Psychiatry, priority 2023, dated 2025)
Like-named read-outs stand apart in the source and are kept apart here.

Experiments:
[1] = system: primary cultured cells of mouse fetus-derived dorsal root ganglia (DRGs); assay: Suppression of axonal degeneration after axotomy in DRG explant culture; type: cell-based; details: minimum concentration at which axonal degeneration was suppressed (DI 0.3 or less), 24 hours after axotomy; for minimal effective concentration: Mus musculus, read-out: Evaluation on protection against degeneration
Method: The compound of the present invention was studied for its protective effect against axonal injury using primary cultured cells of mouse fetus-derived dorsal root ganglia (DRGs).
DRGs were collected from a fetus derived from an ICR mouse (13.5 days of pregnancy). DRGs were cultured using a plate coated by incubation with 0.1 mg/mL poly-L-lysine at 4°C for 24 hours or longer, washing with PBS, and then incubation with 2.5 µg/mL Cultrex Mouse Laminin I at 37°C for 4 to 6 hours.
One of DRGs collected was plated to each well of the coated 24-well plate. The DRG was cultured in a nicotinamide-free medium for neuron (supplemented with 10% FBS, 1 mM glutamine, 50 ng/mL NGF2.5S, and penicillin-streptomycin) for 24 hours at maximum from the start of culture and then cultured in a nicotinamide-free medium for neuron (supplemented with 2% MACS NeuroBrew-21, 50 ng/mL NGF2.5S, 1% Glutamax, 20 µM uridine, 20 µM 5-fluoro-2'-deoxyuridine, and penicillin-streptomycin) for 7 to 8 days.
The nicotinamide-free medium for neuron was prepared so as to have the same constituents as those of the composition published in a previously reported paper (Brewer et al., J. Neuroscience Research 35: 567-576) except for nicotinamide with reference to this composition.
The test compound is dissolved in DMSO and added to cells such that the final concentration of DMSO is 0.1% (1000-fold dilution). 10 mM, 1 mM, 100 µM, 10 µM, 1 µM, and 100 nM samples of the test compound are prepared and added at a 1000-fold dilution to cells.
Axotomy was carried out by scooping out a cell body portion of the cultured DRG with a chip for a micropipette. The test compound was added at the following concentrations (final concentration: 10 µM, 1 µM, 100 nM, 10 nM, 1 nM, and 100 pM) within 30 minutes after axotomy. The compound was evaluated for its protective effect against axonal degeneration by imaging (Leica DMIL microscope, 20× objective lens) the state of neurites 24 hours after axotomy and evaluating the degree of degeneration. The degree of degeneration was quantified using a program uniquely developed using the R language. A degeneration index (DI) was used as an indicator for the degree of degeneration, and the ratio of the area of a fragmented axon to the total area of axons was calculated as defined in the equation of Expression 2. Suppressed axonal degeneration was evaluated when the value of DI was 0.3 or less. The minimum concentration at which axonal degeneration was suppressed was determined for each compound. Degeneratioin index (DI) = (Degenerated axons)/(All axons) [formula]
The axonal protective activity was evaluated as A ≤ 0.01 µM, 0.01 µM < B ≤ 0.1 µM, and 0.1 µM < C ≤ 1 µM depending on the minimum concentration at which axonal degeneration was suppressed.

[2] = target: T1, nicotinamide phosphoribosyl transferase (NAMPT) (Homo sapiens, UniProt P43490); assay: NAMPT activity measurement (NMN fluorescence detection); type: biochemical; details: NAMPT recombinant protein, 10 µM Nam; for IC50: read-out: Evaluation on NAMPT inhibitory
T1 construct: purchased Medical & Biological Laboratories Co., Ltd. (MBL)
Method: The compound of the present invention was evaluated for the ability to influence the activity of nicotinamide phosphoribosyl transferase (NAMPT) which is an enzyme that metabolizes nicotinamide (Nam), not the target SARM1.
The enzymatic reaction of NAMPT was carried out by adding NAMPT recombinant protein (manufactured by Medical & Biological Laboratories Co., Ltd. (MBL)) to a reaction solution containing the substrate Nam, phosphoribosylpyrophosphate (PRPP), ATP, and the like (composition: […] (pH = 7.4), 2 µM ATP, 0.5 µM PRPP, 0.02% BSA, 2 µM DTT, 1.2 µM MgCl2, and 10 µM Nam). The amount of the reaction product NMN was detected by detecting the fluorescent signal of a fluorescent substance obtained through the reaction of 2-acetylbenzofuran with NMN using SpectraMax M2 (Molecular Devices) (excitation: 421 nm, fluorescence: 480 nm) (Moriya et al, Chemical Communications 2013, 49 11500). The test compound was added at final concentrations of 10 µM, 3 µM, 1 µM, 300 nM, 100 nM, 30 nM, 10 nM, and 3 nM to the NMN synthesis reaction system described above. The NMN-derived fluorescent signal was normalized against a control group and plotted as the function of the test compound concentrations, and the compound was evaluated for its NAMPT inhibitory effect by calculating IC50.
The IC50 value was evaluated as ∘ for ≥1 µM and as Δ for ≥0.1 µM.

hSARM1 = target: T2, hSARM1 (Homo sapiens, UniProt Q6SZW1); assay: Human SARM1 activity measurement in HEK293 cells transiently transfected with ΔN-hSARM1 (PC6 fluorescent probe); type: cell-based; design: expressed in transfected cells; host or cells: HEK293, pcDNA3 expression vector
T2 sequence (Q6SZW1 28-724): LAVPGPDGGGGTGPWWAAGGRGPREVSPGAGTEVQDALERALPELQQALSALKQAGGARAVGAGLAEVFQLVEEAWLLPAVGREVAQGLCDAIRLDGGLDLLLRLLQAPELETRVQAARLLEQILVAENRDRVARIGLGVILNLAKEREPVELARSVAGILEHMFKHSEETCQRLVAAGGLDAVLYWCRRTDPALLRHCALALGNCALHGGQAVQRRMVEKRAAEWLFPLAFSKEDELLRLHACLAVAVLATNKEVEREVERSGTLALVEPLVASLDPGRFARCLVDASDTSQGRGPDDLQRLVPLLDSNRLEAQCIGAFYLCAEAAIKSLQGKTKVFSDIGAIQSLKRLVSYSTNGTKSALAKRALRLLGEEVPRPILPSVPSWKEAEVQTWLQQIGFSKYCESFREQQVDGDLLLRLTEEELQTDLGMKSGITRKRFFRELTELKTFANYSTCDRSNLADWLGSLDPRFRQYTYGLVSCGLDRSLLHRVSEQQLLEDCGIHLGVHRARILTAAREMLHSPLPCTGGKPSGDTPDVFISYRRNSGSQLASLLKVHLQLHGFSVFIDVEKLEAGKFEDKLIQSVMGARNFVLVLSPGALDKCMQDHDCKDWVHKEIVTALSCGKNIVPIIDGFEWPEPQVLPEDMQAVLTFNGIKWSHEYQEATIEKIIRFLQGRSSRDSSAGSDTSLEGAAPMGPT
Method: HEK293 cells cultured in a prepared medium of nicotinamide-free DMEM (Dulbecco's modified Eagle medium) supplemented with 10% FBS (BioSera), a 1% penicillin-streptomycin solution (FUJIFILM Wako Pure Chemical Corp.), 5 μM nicotinamide were inoculated at approximately 50,000 cells/well to a 96-well microplate, and the cells were cultured at 37°C under 5% CO2, transiently transfected on the next day with a pcDNA3 expression vector containing a DNA sequence (SEQ ID NO: 1) deficient in a mitochondrial targeting sequence encoded by an N-terminal 78-base sequence in cDNA encoding human sterile α- and armadillo-motif-containing protein (hSARM1) using PEI MAX(R) reagent (PolySciences Inc.), and forced to express ΔN-hSARM1 (SEQ ID NO: 2). Approximately 8 hours later, PC6, which reacts as a substrate of SARM1-specific base exchange reaction and functions as a fluorescent probe, was added thereto at a final concentration of 50 μM, and intracellular hSARM1 activity was measured (Li et al, eLife 2021 10: e67381). A compound for inhibitory activity evaluation was added at a final concentration of 30 μM at the same time with PC6, while dimethyl sulfoxide (Nacalai Tesque Inc.) was added to samples of a control group at the same time with PC6. The cells were incubated at 37°C under 5% CO2 for approximately 48 hours from transfection, followed by fluorescent signal measurement using SpectraMax M2 (Molecular Devices) (excitation: 405 nm, fluorescence: 525 nm, fluorescence cutoff: 515 nm). Results of this screening are reported as an inhibition rate (%) relative to a negative control defined as follows by using fluorescence intensity measured from a control group without transfection with ΔN-hSARM1 as a background whereas using fluorescence intensity measured from a control group transfected with ΔN-hSARM1 as the negative control. Inhibitory rate (%) = 100-(([…]-Background))/((Signalofthenegativecontrol-Background)) × 100 [formula] The nicotinamide-free medium was prepared so as to have the same composition as that of DMEM having known composition which is generally used in the art except for nicotinamide. […]

[3] = inhibition rate, compound 30 µM, PC6 50 µM, HEK293 cells expressing ΔN-hSARM1, approximately 48 hours from transfection, read-out: Evaluation on hSARM1 inhibitory

T1 sequence (P43490 whole entry, species assumed): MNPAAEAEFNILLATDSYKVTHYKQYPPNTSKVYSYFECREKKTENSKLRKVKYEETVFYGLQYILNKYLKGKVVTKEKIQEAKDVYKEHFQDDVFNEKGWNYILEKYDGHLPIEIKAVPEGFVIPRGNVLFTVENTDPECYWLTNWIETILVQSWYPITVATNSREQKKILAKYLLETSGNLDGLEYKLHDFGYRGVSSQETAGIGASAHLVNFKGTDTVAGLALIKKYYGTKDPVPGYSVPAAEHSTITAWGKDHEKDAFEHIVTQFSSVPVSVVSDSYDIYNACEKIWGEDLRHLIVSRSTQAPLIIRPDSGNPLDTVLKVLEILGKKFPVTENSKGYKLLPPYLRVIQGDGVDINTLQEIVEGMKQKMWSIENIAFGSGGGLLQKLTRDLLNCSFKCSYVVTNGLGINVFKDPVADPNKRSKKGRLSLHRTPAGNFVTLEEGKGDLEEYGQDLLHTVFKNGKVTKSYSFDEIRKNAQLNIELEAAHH

Row | Evaluation on NAMPT inhibitory [2] | inhibition at 30 µM (hSARM1; [3]) [%] | IC50 [2] [nM] | Structure (SMILES) | minimal effective concentration [1] [µM] | Evaluation on protection against degeneration [1] | inhibition at 30 µM (hSARM1; HEK293, read-out: Evaluation on hSARM1 inhibitory) [%]
1 | ○ | > 75 | – | O=C(NCc1ccc(NC(=O)c2ccc(F)cc2)nc1)c1cccnc1 [Compound 117] | ≤ 0.01 | – | –
2 | ○ | > 75 | – | O=C(NCc1ccc(NC(=O)c2ccc(Cl)cc2)nc1)c1cccnc1 [Compound 118] | ≤ 0.01 | – | –
3 | ○ | > 75 | – | Cc1ccc(C(=O)Nc2ccc(CNC(=O)c3cccnc3)cn2)cc1 [Compound 119] | ≤ 0.01 | – | –
4 | ○ | > 25 | – | O=C(NCc1ccc(NC(=O)c2cccnc2)nc1)c1cccnc1 [Compound 120] | ≤ 0.01 | – | –
5 | ○ | > 75 | – | O=C(NCc1ccc(NC(=O)c2ccc3ncccc3c2)nc1)c1cccnc1 [Compound 122] | ≤ 0.01 | – | –
6 | – | > 75 | ≥ 100 | O=C(Cc1ccc2ccccc2c1)Nc1ccc(CNC(=O)c2cccnc2)cn1 [Compound 123] | ≤ 0.01 | – | –
7 | ○ | > 75 | – | O=C(NCc1ccc(NC(=O)c2ccncc2)nc1)c1cccnc1 [Compound 124] | ≤ 0.01 | – | –
8 | – | > 75 | ≥ 100 | O=C(NCc1ccc(NC(=O)c2ccccn2)nc1)c1cccnc1 [Compound 125] | ≤ 0.01 | – | –
9 | – | > 75 | ≥ 100 | O=C(NCc1ccc(NC(=O)c2cnc3ccccc3c2)nc1)c1cccnc1 [Compound 126] | ≤ 0.01 | – | –
10 | – | > 75 | ≥ 100 | O=C(NCc1ccc(NC(=O)c2ccc3ccccc3c2)nc1)c1cccnc1 [Compound 127] | ≤ 0.01 | – | –
11 | ○ | > 75 | – | O=C(NCc1ccc(NC(=O)c2ccc(-c3ccccc3)cc2)nc1)c1cccnc1 [Compound 128] | ≤ 0.01 | – | –
12 | ○ | > 75 | – | COc1ccc(C(=O)Nc2ccc(CNC(=O)c3cccnc3)cn2)cc1 [Compound 129] | ≤ 0.01 | – | –
13 | ○ | > 75 | – | Cc1ccccc1C(=O)Nc1ccc(CNC(=O)c2cccnc2)cn1 [Compound 130] | ≤ 0.01 | – | –
14 | ○ | > 75 | – | CCc1ccc(C(=O)Nc2ccc(CNC(=O)c3cccnc3)cn2)cc1 [Compound 131] | ≤ 0.01 | – | –
15 | ○ | > 75 | – | O=C(NCc1ccc(NC(=O)c2cccc(Cl)c2)nc1)c1cccnc1 [Compound 132] | ≤ 0.01 | – | –
16 | ○ | > 75 | – | O=C(NCc1ccc(NC(=O)c2ccccc2F)nc1)c1cccnc1 [Compound 133] | ≤ 0.01 | – | –
17 | ○ | > 75 | – | Cc1ccc(C(=O)Nc2ccc(CNC(=O)c3cccnc3)cn2)cc1C [Compound 134] | ≤ 0.01 | – | –
18 | ○ | > 75 | – | Cc1cc(C)cc(C(=O)Nc2ccc(CNC(=O)c3cccnc3)cn2)c1 [Compound 136] | ≤ 0.01 | – | –
19 | ○ | > 75 | – | O=C(NCc1ccc(NC(=O)c2ccc(F)c(F)c2)nc1)c1cccnc1 [Compound 137] | ≤ 0.01 | – | –
20 | ○ | > 75 | – | O=C(NCc1ccc(NC(=O)c2cc(F)cc(F)c2)nc1)c1cccnc1 [Compound 138] | ≤ 0.01 | – | –
21 | ○ | > 25 | – | O=C(NCc1ccc(NC(=O)c2ccc(F)cc2F)nc1)c1cccnc1 [Compound 139] | ≤ 0.01 | – | –

Row | Structure (SMILES) | Evaluation on NAMPT inhibitory [2] | inhibition at 30 µM (hSARM1; [3]) [%] | IC50 [2] [nM] | minimal effective concentration [1] [µM] | Evaluation on protection against degeneration [1] | inhibition at 30 µM (hSARM1; HEK293, read-out: Evaluation on hSARM1 inhibitory) [%]
22 | Cc1ccc(C(=O)Nc2ccc(CNC(=O)c3cccnc3)cn2)c(C)c1 [Compound 135] | ○ | – | – | – | A (A ≤ 0.01 µM) | > 75
